Results on three compounds are retold here after patent US8193191B2, “Urotensin II receptor antagonists” (Janssen Pharmaceutica N.V., priority 2006, dated 2012).

In assay [1] the target is T1, rat GPR14 (U-II receptor) (Rattus norvegicus, UniProt P49684).
T1 construct: expressed in transfected cells
T1 sequence (P49684 1-386): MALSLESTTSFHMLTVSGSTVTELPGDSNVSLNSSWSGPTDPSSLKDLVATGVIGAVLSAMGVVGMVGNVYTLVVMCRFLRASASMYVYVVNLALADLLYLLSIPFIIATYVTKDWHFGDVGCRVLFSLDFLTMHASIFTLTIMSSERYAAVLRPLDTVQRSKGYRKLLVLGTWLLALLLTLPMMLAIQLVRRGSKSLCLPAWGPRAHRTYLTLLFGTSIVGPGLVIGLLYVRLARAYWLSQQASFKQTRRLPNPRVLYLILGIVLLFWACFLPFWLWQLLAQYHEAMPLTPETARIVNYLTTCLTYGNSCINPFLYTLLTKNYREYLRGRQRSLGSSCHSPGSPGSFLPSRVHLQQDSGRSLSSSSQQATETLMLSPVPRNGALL
Briefly: Rat UII Calcium Mobilization FLIPR Assay. The assay is classed as cell-based. The settings on record: average value for the compound tested; read-out: Rat UII FLIPR Average IC50. In short, it runs like this:
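CHO cells stably expressing rat U-II receptor, seeded 24 h before assay, were loaded with FLIPR calcium dye in HBSS/20 mM HEPES/0.1% BSA/2.5 mM probenecid, pH 7.4, for 1 h at 37° C. Calcium mobilization then read by FLIPR at 23° C.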

For assay [2], the target named is T2, Human UII receptor, 6D9 human rhabdomyosarcoma cells (Homo sapiens, UniProt Q9UKP6).
T2 construct: 6D9: isolated by dilution subcloning of RMS13 cells, ATCC® Number: CRL-2061; host or cells: 6D9 human rhabdomyosarcoma cells (subclone of RMS13)
T2 sequence (Q9UKP6 1-389): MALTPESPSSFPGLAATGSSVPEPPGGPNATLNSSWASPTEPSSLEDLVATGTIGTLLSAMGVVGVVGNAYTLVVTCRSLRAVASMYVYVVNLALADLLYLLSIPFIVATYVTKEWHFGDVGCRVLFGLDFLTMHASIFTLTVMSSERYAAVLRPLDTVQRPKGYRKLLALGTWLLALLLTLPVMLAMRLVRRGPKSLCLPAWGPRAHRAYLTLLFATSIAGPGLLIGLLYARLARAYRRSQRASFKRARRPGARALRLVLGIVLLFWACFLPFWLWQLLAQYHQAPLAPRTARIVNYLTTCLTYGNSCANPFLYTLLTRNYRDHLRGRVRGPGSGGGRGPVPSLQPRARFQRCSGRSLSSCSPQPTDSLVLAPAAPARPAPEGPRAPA
Briefly: Human UII Calcium Mobilization Assay. The assay is classed as cell-based. The note with it: average value, FLIPR TETRA, read-out: Human UII Ca^+ Mobilization Average IC50. In short, it runs like this:
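6D9 rhabdomyosarcoma cells loaded 45 min at 37° C with calcium dye (1.25 mM probenecid, 0.01% FBS, HBSS/20 mM HEPES). Antagonist and U-II agonist added at room temperature; FLIPR fluorescence read over 4 min; EC50/IC50 fitted. DMSO ≤0.1% final.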

Assay [3] concerns the target T3, endogenous human UII receptor (Homo sapiens, UniProt Q9UKP6).
T3 sequence (Q9UKP6 1-389): T2 sequence (Q9UKP6 1-389)
As to the kind of experiment: Human Radioligand Binding Assay ((^125I)-U-II binding to human skeletal muscle myoblasts).

In assay [4] the test system is isolated arterial rings of rats. The note with it: read-out: EC50 of contraction; cited from earlier work.
Assay [5] relates to isolated arterial rings of humans. The settings on record: read-out: EC50 of contraction; cited from earlier work.
Assay [6] deals with T1, rat GPR14 (U-II receptor). The note with it: agonist peptide, CHO cells transfected with rat GPR14; read-out: FLIPR EC50; cited from earlier work.
The next assay addresses T4, rU-II receptor (Rattus norvegicus, UniProt P49684).
T4 sequence (P49684 1-386): T1 sequence (P49684 1-386)
The note with it: agonist peptide; cited from earlier work.

`CCN1CCN(c2cccc3c2C(=O)N(C(CC2CCN(S(=O)(=O)c4cccs4)CC2)c2ccc(OC)c(OC)c2)C3=O)CC1` (stereo not shown) [Cpd 234, 2-{1-(3,4-dimethoxy-phenyl)-2-[1-(thiophene-2-sulfonyl)-piperidin-4-yl]-ethyl}-4-(4-ethyl-piperazin-1-yl)-isoindole-1,3-dione]: the IC50 in assay [1] was determined as 51 nM; in assay [2] it was 1700 nM. The compound also displayed a Ki in assay [3] of 280 nM.
With “AGTAD-cyclo(CFWKYC)—V [Goby U-II, Urotensin-II isolated from the urophysis of the goby fish (Gillichthys mirabilis) as a 12-mer]”, the EC50 in assay [4] and in assay [5] was less than 1 nM in each case.
Consider “Acetyl-cyclic[Cys-Phe-Trp-Lys-(2-Nal)-Cys]-NH2 [(Ac)—CFWK(2-NaI)C—NH2, agonist cyclic peptide used at 1 nM to induce Ca2+ mobilization in the rat UII FLIPR assay]”, for which, in assay [6], the EC50 was 0.54 ± 0.2 nM. The inhibition constant (Ki) at rU-II receptor was 0.12 ± 0.05 nM.
